Consider two molecules from ChEMBL document CHEMBL1148989, “Meroterpenoid MAPKAP (MK2) inhibitors isolated from the indonesian marine sponge Acanthodendrilla sp” (J Nat Prod, 2004).

This test deals with MAP kinase-activated protein kinase 2 (Homo sapiens, UniProt P49137). Description: Inhibition of MK2.

Structures are written as SMILES. pIC50: −log10 of the molar value.

Chain of MAP kinase-activated protein kinase 2 (P49137 whole entry): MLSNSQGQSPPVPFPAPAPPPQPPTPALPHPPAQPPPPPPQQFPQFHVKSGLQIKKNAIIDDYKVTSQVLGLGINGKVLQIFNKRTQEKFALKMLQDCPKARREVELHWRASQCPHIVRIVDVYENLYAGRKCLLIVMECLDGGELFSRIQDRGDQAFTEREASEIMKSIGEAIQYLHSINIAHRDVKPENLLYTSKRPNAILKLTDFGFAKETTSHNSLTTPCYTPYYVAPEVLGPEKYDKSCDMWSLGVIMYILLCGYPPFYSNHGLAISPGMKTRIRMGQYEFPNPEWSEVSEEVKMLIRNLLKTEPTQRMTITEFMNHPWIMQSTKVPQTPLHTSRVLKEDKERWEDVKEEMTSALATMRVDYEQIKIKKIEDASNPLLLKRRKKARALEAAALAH

The pIC50 is the IC50 on a negative log10 scale, so that one unit is a factor of ten. A higher pIC50 goes with a small IC50. The molecule `CC1=C(CC/C(C)=C/Cc2cc(C(=O)O)ccc2O)[C@@]2(C)CCCC(C)(C)[C@@H]2CC1` gave a negative-log IC50 (pIC50) of 5.02.

Regarding `CC1=CC[C@H]2[C@@](C)(CC[C@H]3C(C)(C)CCC[C@]23C)[C@@H]1Cc1cc(C(=O)O)ccc1O`, the pIC50 is 4.70.
